In brackets after ≈: the same amount, converted by molar mass. Like-named read-outs stand apart in the source and are kept apart here.
Assays:
[1] = tested on: chloroquine-resistant (multidrug-resistant) PfDd2 (MRA-150) P. falciparum strain; experiment: SYBR green I-based fluorescence P. falciparum growth inhibition assay, PfDd2; format: cell-based, Plasmodium falciparum; settings: for IC50: Plasmodium falciparum, read-out: IC50 ± SD PfDd2; for antiplasmodial activity class on PfDd2: class by IC50 criteria of b51, Dd2 strain only
Procedure: (§1) The chloroquine-sensitive Pf3D7-(MRA-102) and chloroquine-resistant PfDd2-(MRA-150) P. falciparum strains were maintained as previously described in fresh O^+ human red blood cells at 4% haematocrit in complete RPMI 1640 medium [500 mL RPMI 1640 (Gibco, UK) supplemented with 25 mM HEPES (Gibco, UK), […] (Gibco, USA), 1X hypoxanthine (Gibco, USA) and […] gentamicin (Gibco, China)] and incubating at 37 °C in a humidified atmosphere with 5% CO2. The medium was renewed daily to propagate the culture. Giemsa-stained thin blood smears were examined microscopically under immersion oil to monitor cell-cycle transition and parasitemia evolution. O^+ human red blood cells were obtained from a consent volunteer donor (Supplementary material).
(§2) Before each experiment, synchronized ring-stage parasite were obtained by 5% sorbitol (w/v) treatment with respect to Lambros and Vanderberg, 1979 [12]. It is crucial to note that, using cultures over mixed stage cultures can enable the test molecules to interact with all three stages (ring, trophozoite, and schizont) of the 48 h long life cycle of P. falciparum in culture.
(§3) A drug sensitivity assay was carried out in 96-well microtitration plates using a SYBR green I-based fluorescence assay. This assay is specifically based on the ability of SYBR green to give strong fluorescence only in the presence of parasite DNA during cell proliferation.
(§4) Shortly, sorbitol-synchronized ring stage parasites (hematocrit: 1%, parasitemia: 2%, 90 μl) under normal culture conditions were incubated in the presence of prediluted extracts, fractions, isolated compounds and reference drug (10 μL) followed by incubation at 37℃ for 72 h. After incubation, 100 μL of SYBR Green I buffer [6 μL of 10,000 × SYBR Green I (Invitrogen) + 600 μL of Red Blood Cells lysis buffer {Tris (25 mM; pH 7.5)} + 360 μL of EDTA (7.5 mM) + 19,2 μL of parasites lysis solution {saponin (0.012%; wt/vol)} and 28,8 μL of Triton X-100 (0.08%; vol/vol)}] was added to each well, mixed twice gently with a multichannel pipette and incubated in the dark at 37℃ for 1 h. Fluorescence was measured using a TECAN M 200 Microplate reader with excitation and emission at 485 and 538 nm, respectively. The fluorescence counts were plotted against the logarithm of the sample concentration and the 50% inhibitory concentration (IC50) was determined by analysis of dose–response curves using GraphPad Prism 5.0. Experiments were performed in duplicate.

[2] = tested on: chloroquine-sensitive Pf3D7 (MRA-102) P. falciparum strain; experiment: SYBR green I-based fluorescence P. falciparum growth inhibition assay, Pf3D7; format: cell-based; settings: Plasmodium falciparum, read-out: IC50 ± SD Pf3D7
Procedure: as §1, §2, §3, §4

[3] = Resazurin-based in vitro cytotoxicity assay; format: cell-based; settings: mouse
Procedure: The cytotoxicity profile of extracts, fractions and isolated compounds was assessed using the resazurin-based assay essentially as previously described against RAW 264.7 cells duly cultivated in complete Dulbecco′s Modified Eagle′s Medium (DMEM) that contain 13.5 g/L of DMEM (Sigma Aldrich), 10% fetal bovine serum (Sigma Aldrich), 0.2% sodium bicarbonate (w/v) (Sigma Aldrich) and 50 μg/mL of gentamicin (Sigma Aldrich). Globally, macrophages (Raw cells) were seeded into 96-well cell-culture flat-bottomed plates at a density of 10^4 cells in 100 μL of complete medium/well and placed in incubation for 24 h at 37℃, and 5% CO2 allowing cell adhesion. Following cell adhesion, ten microliters of each serially diluted test sample solution was added to assay plates and left in incubation for 48 h under the same experimental conditions. Growth control (1% DMSO-100% growth) and positive control wells (podophyllotoxin at 20 μM) were included in the experimental plates. Cell proliferation was checked by adding 10 μL of a stock solution of resazurin (0.15 mg/mL in sterile PBS) to each well followed by an additional incubation of 4 h in the same culture conditions. Fluorescence was then read using Tecan Infinite M200 fluorescence multiwell plate reader (Tecan) at an excitation/emission of 530/590 nm. The results were expressed as 50% cytotoxic concentrations (CC50) and selectivity indices (CC50 Mammalian cell/IC50 Pf3D7) were calculated for each test substance.

[4] = tested on: P. falciparum 3D7 and Dd2 strains; experiment: SYBR green antiplasmodial assay, results stated for both strains together; format: cell-based, Plasmodium falciparum; settings: for Resistance Index (RI): PfDd2 versus Pf3D7; for antiplasmodial activity class on both Pf3D7 and PfDd2: class by IC50 criteria of b51
Excerpt: The medium was renewed daily to propagate the culture. Giemsa-stained thin blood smears were examined microscopically under immersion oil to monitor cell-cycle transition and parasitemia evolution. O^+ human red blood cells were obtained from a consent volunteer donor (Supplementary material).
as §2, §3, §4

[5] = tested on: chloroquine-resistant (Dd2) strain of P. falciparum; settings: Zofou and colleagues (2013) ref 9; cited from earlier work
[6] = SYBr Green based assay, 72 h, multidrug-resistant strain
[7] = SYBr Green based assay, 72 h, chloroquine-sensitive strain
[8] = Raw cells, 48 h, resazurin, read-out: CC50
[9] = reference drugs, unit nM printed with the name

Question: For `CCCCCCCCCCCCCCCCCCCCCCCC(=O)OCC(O)CO` (centres unmarked) [compound 8, Glyceryl-1-tetracosanoate], which IC50 [1, 6] is on record?
Answer: The IC50 was greater than 25 µg/mL.

Question: And the IC50 [2, 7]?
Answer: The IC50 was greater than 25 µg/mL.

Question: And the CC50 at 48 h [3]?
Answer: Its CC50 at 48 h is greater than 100 µg/mL.

Question: With `O=C(O)c1ccc(O)c(O)c1` [compound 6, 3,4-dihydroxybenzoic acid] as the molecule, how does the IC50 ([1]; 72 h) read?
Answer: Its IC50 is 17.09 ± 0.06 µg/mL.

Question: What about the “antiplasmodial activity class on PfDd2” value [1] of the same molecule?
Answer: Its value is “moderate (10 < IC50 ≤ 20 μg/mL: moderate activity)”.

Question: What about the IC50 ([2]; 72 h) of the same molecule?
Answer: The IC50 was greater than 25 µg/mL.

Question: What about the CC50 at 48 h [3, 8] of the same molecule?
Answer: Its CC50 at 48 h is greater than 100 µg/mL.

Question: Which IC50 [1, 6] does the source give for `CC(=O)O[C@H]1CC[C@]2(C)[C@H]3CC=C4[C@@H]5CC(C)(C)CC[C@]5(C)CC[C@@]4(C)[C@]3(C)CC[C@H]2C1(C)C` [compound 11, β-amyrin acetate] here?
Answer: The IC50 was greater than 25 µg/mL.

Question: What about the IC50 [2, 7] of the same molecule?
Answer: Its IC50 is greater than 25 µg/mL.

Question: What about the CC50 at 48 h [3] of the same molecule?
Answer: The CC50 at 48 h was greater than 100 µg/mL.

Question: For `CCN(CC)CCCC(C)Nc1ccnc2cc(Cl)ccc12` (centres unmarked) [Chloroquine, reference compound], which IC50 [1] is on record?
Answer: Its IC50 is 133 ± 0.16 nM.

Question: And the IC50 [2]?
Answer: The IC50 was 4.36 ± 0.53 nM.

Question: With `COc1c(O)cc2c(=O)oc3c(OC)c(O)cc4c(=O)oc1c2c34` [compound 3, 3,3′-O-dimethylellagic acid] as the molecule, how does the IC50 [1, 6] read?
Answer: The IC50 was 1.36 ± 0.14 µg/mL.

Question: And the IC50 [2, 7]?
Answer: The IC50 was 1.17 ± 0.04 µg/mL.

Question: What about the CC50 at 48 h [3] of the same molecule?
Answer: Its CC50 at 48 h is greater than 100 µg/mL.

Question: What about the “Resistance Index (RI)” value [4] of the same molecule?
Answer: Its value is 1.16.

Question: What about the “antiplasmodial activity class on both Pf3D7 and PfDd2” value [4] of the same molecule?
Answer: Its value is “pronounced (IC50 ≤ 5 μg/mL: pronounced activity)”.

Question: Which results are given for `COc1cc2c(=O)oc3c(OC)c(O)cc4c(=O)oc(c1OC)c2c34` [compound 4, 3,3′,4-tri-O-methylellagic acid]?
Answer: IC50 [1, 6]: 0.63 ± 0.27 µg/mL; IC50 [2, 7]: > 25 µg/mL; CC50 at 48 h [3]: > 100 µg/mL

Question: Which IC50 ([1]; 72 h) does the source give for `COc1cc(O)c2c(=O)c3c(C)cc(O)cc3oc2c1` [compound 2, Griseoxanthone C] here?
Answer: The IC50 was greater than 25 µg/mL.

Question: What about the IC50 ([2]; 72 h) of the same molecule?
Answer: Its IC50 is greater than 25 µg/mL.

Question: And the CC50 at 48 h [3, 8]?
Answer: Its CC50 at 48 h is greater than 100 µg/mL.

Question: For `C/C(=C/CCC(C)C1CCC2(C)C3=CCC4C(C)(C)C(=O)CCC4(C)C3CCC12C)C(=O)O` (centres unmarked) [compound 13, 3-oxo-lanosta-7,24-Z-dien-26-oid acid], which IC50 [1, 6] is on record?
Answer: The IC50 was 14.21 ± 0.11 µg/mL.

Question: And the “antiplasmodial activity class on PfDd2” value [1]?
Answer: The value was “moderate (10 < IC50 ≤ 20 μg/mL: moderate activity)”.

Question: What about the IC50 [2, 7] of the same molecule?
Answer: The IC50 was greater than 25 µg/mL.

Question: And the CC50 at 48 h ([3]; RAW 264.7 macrophage cells, Raw cells, 48 h, resazurin, read-out: CC50)?
Answer: Its CC50 at 48 h is greater than 100 µg/mL.

Question: What does the source list for `CC(=O)OCC(Cc1ccccc1)NC(=O)C(Cc1ccccc1)NC(=O)c1ccccc1` (centres unmarked) [compound 9, Auranthiamide acetate]?
Answer: IC50 [1, 6]: > 25 µg/mL; IC50 [2, 7]: > 25 µg/mL; CC50 at 48 h [3]: > 100 µg/mL

Question: For `CCCCCC(=O)Cc1cc(OC)cc(O)c1C(=O)Oc1cc(CCCCC)c(C(=O)O)c(OC)c1` [compound 7, Confluentic acid], which IC50 [1, 6] is on record?
Answer: The IC50 was greater than 25 µg/mL.

Question: And the IC50 [2, 7]?
Answer: The IC50 was greater than 25 µg/mL.

Question: What about the CC50 at 48 h [3] of the same molecule?
Answer: Its CC50 at 48 h is greater than 100 µg/mL.

Question: Which IC50 [1, 9] does the source give for `C[C@@H]1CC[C@H]2[C@@H](C)C(=O)O[C@@H]3O[C@@]4(C)CC[C@@H]1[C@]32OO4` [Artemisinin, reference compound] here?
Answer: The IC50 was 18.9 ± 0.13 nM.

Question: And the IC50 [2, 9]?
Answer: The IC50 was 14.66 ± 0.11 nM.

Question: Which IC50 [1, 6] does the source give for `CC1(C)CC[C@]2(C)CC[C@]3(C)C(=CC[C@@H]4[C@@]5(C)CC[C@H](O)C(C)(C)[C@@H]5CC[C@]43C)[C@@H]2C1` [compound 12, β-amyrin] here?
Answer: Its IC50 is greater than 25 µg/mL.

Question: What about the IC50 [2, 7] of the same molecule?
Answer: Its IC50 is greater than 25 µg/mL.

Question: What does the source list for `CCOC(=O)c1cc(O)c(O)c(O)c1` [compound 10, Ethyl gallate]?
Answer: IC50 [1, 6]: 2.86 ± 0.07 µg/mL; IC50 [2, 7]: 1.15 ± 0.1 µg/mL; CC50 at 48 h [3]: > 100 µg/mL; Resistance Index (RI) [4]: 2.48; antiplasmodial activity class on both Pf3D7 and PfDd2 [4]: pronounced (IC50 ≤ 5 μg/mL: pronounced activity)

Question: With `COc1c(O)cc2c(=O)oc3c(OC)c(OC4OCC(O)C(OC(=O)c5cc(O)c(O)c(O)c5)C4O)cc4c(=O)oc1c2c34` [compound 5, 3,3″-di-O-methylellagic acid 4-O-(3″-galloyl)-β-D-xylopyranoside] as the molecule, how does the IC50 [1, 6] read?
Answer: Its IC50 is 1.76 ± 0.14 µg/mL.

Question: And the IC50 [2, 7]?
Answer: Its IC50 is 1.86 ± 0.18 µg/mL.

Question: And the CC50 at 48 h [3]?
Answer: The CC50 at 48 h was greater than 100 µg/mL.

Question: And the “Resistance Index (RI)” value [4]?
Answer: The value was 1.12.

Question: For `COC(=O)c1cc(O)c(O)c(O)c1` [DES4, methyl 3,4,5-trihydroxybenzoate], which “IC50 Dd2” value [5] is on record?
Answer: The value was 0.56 µg/mL (≈ 3.04 µM).
